From patent publication US11814372B2, “Agonists of EPHA and their uses” (CASE WESTERN RESERVE UNIVERSITY, priority 2017, dated 2023)

Biological target: T1, EphA2 LBD (Homo sapiens, UniProt P29317)
T1 construct: fused on or other part: Minimal biotinylation for capture on Neutravidin (doxazosin run); amine coupling for the other compounds
Assay: Surface Plasmon Resonance binding analysis
Settings: SPR, recombinant LBD of EphA2; read-out: dissociation constant (KD)
Method: Binding analysis was carried out using standard biosensor chips and the […] Dual Channel SPR System (Reichert Life Sciences, Depew, N.Y.). The extracellular domain (ECD) of EphA2 was coupled to the chip by standard amine coupling using 1-ethyl-3-(3-dimethylaminopropyl) carbodiimide (EDC) and N-hydroxysuccinimide (NHS), followed by ethanolamine wash. In the case of doxazosin, Neutravidin was coupled to the chip, followed by ethanolamine wash and addition of minimally biotinylated EphA2 ECD to properly orient the protein. Different concentrations of dobutamine, labetalol, and doxazosin in running buffer (PBS, 0.05% Tween-20, 1% DMSO) were flown over the chip at a rate of […] and binding analyzed in real-time. After approximately 60 seconds, running buffer was flown over the chip to dissociate the compounds from the coupled protein (downward slope of curve). Binding data were analyzed and KD values determined using Clamp software (BioLogic Software Pty Ltd).

T1 sequence (P29317 28-206 limits assumed): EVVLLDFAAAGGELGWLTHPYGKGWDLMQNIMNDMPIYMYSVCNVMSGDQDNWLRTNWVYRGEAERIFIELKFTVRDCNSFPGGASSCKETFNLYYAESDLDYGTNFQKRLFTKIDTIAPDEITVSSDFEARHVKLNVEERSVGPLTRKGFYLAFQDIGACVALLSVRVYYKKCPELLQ

Kd [µM]	SMILES
1500	CC(CCc1ccc(O)cc1)NCCc1ccc(O)c(O)c1 (centres unmarked) [dobutamine]
440	CC(CCc1ccccc1)NCC(O)c1ccc(O)c(C(N)=O)c1 (centres unmarked) [labetalol]
